Literature values in patent publication US6150391A, “Diazabicyclo-octane derivatives as 5-HT receptor ligands” (Merck Sharp & Dohme Ltd., priority 1996, dated 2000).

Experiments:
[1] = tested on: human 5-HT1D.sbsb.α and 5-HT1D.sbsb.β receptor subtypes; settings: cf WO-A-91/17174, Table 1
[2] = therapeutic doses

discrimination between the human 5-HT1D.sbsb.α and 5-HT1D.sbsb.β receptor subtypes [1]: barely discriminates
Structure (SMILES): CNS(=O)(=O)Cc1ccc2[nH]cc(CCN(C)C)c2c1 [sumatriptan]
adverse events on administration to humans [2]: certain adverse cardiovascular events
